Marks after values point to notes of the source that are not given here. One block for each molecule: values may come before it.
Tests used:
CPT2-deficient myoblasts = details: Djouadi 2005; cited from earlier work
CPT2 = details: patient fibroblasts, mild CPT2 mutations; Djouadi 2003; cited from earlier work
[1] = XRPD re-analysis after GVS isotherm; type: physicochemical; details: after isotherm at 90% RH and 25° C.
Description: The samples were recovered after completion of the isotherm experiment at 90% RH and 25° C. and re-analyzed by XRPD.

[2] = Stability of solid state forms (storage, drying), XRPD; type: physicochemical
Description: Samples were assessed for stability under ambient or static storage conditions of 25° C./[…] and 40° C./75% RH for 7 or 10 days. The samples were then re-analyzed by XRPD. Subsequent XRPD analysis results for the crystalline forms are described below: […]

[3] = Variable temperature XRPD (heating); type: physicochemical; details: heating to 110° C.
Description: For variable temperature (VT-XRPD) experiments the samples were prepared and analyzed in an Anton Paar chromed sample holder. A heating/cooling rate of 10° C./min was used with a 2 min isothermal hold before the measurement started. The measurement parameters are as per the standard screening data collection method (detailed above). Measurements were taken at the following temperatures: […]

[4] = Gravimetric Vapor Sorption (GVS); type: physicochemical; details: 25° C., w/w
Description: Sorption isotherms were obtained using a SMS DVS Intrinsic moisture sorption analyzer, controlled by DVS Intrinsic Control software. The sample temperature was maintained at 25° C. by the instrument controls. The humidity was controlled by mixing streams of dry and wet nitrogen, with a total flow rate of 200 ml/min. The relative humidity was measured by a calibrated Rotronic probe (dynamic range of 1.0-100% RH), located near the sample. The weight change, (mass relaxation) of the sample as a function of % RH was constantly monitored by a microbalance (accuracy ±0.005 mg).
Typically, 5-30 mg of sample was placed in a tared mesh stainless steel basket under ambient conditions. The sample was loaded and unloaded at 40% RH and 25° C. (typical room conditions). A moisture sorption isotherm was performed as outlined below (2 scans per complete cycle). The standard isotherm was performed at 25° C. at 10% RH intervals over a 0-90% RH range. Typically, a double cycle (4 scans) was carried out. Data analysis was carried out within Microsoft Excel using the DVS Analysis Suite.

[5] = Competitive slurries Form 1 / Form 2 (thermodynamic stability); type: physicochemical; details: water activities 0.4-0.8; 5, 25, 50° C.
Description: Competitive slurries aiming to determine the order of stability between Form 1 and Form 2 were performed in a range of water activities (0.4-0.8).
Crystalline Form 1 (2 g) and Crystalline Hydrate Form 2 (2 g) were lightly ground together using a mortar and pestle and then mixed using a roller mixer for approximately 2 hours. An XRPD was collected on this sample.
Saturated solutions at 5° C./25° C. were prepared by suspending the mixed sample (200 mg) in 4 ml of the selected solvent and saturated solutions were prepared at 50° C. by suspending the mixed sample (100 mg) in 1 ml of the selected solvent. The saturated solutions were left stirring for 3 hrs at 25° C. and 50° C. The saturated solutions at 25° C. were filtered and split into solutions at 5° C. and 25° C. The mixed sample (50 mg) was added to the filtered solutions. Two control samples of Form 2 (50 mg) were prepared in 1 ml of acetone:water (99:1) and EtOH:water (95:5) and left stirring at 5° C., 25° C. and 50° C.

[6] = tested on: patient fibroblasts (VLCAD, LCHAD, TFP deficiencies); details: Goddeeris 2017; cited from earlier work
[7] = listed as crystalline Form 4 of Compound II

SMILES: CC(C)(Oc1ccc(CCNC(=O)c2ccc(Cl)cc2)cc1)C(=O)O [bezafibrate, 2-(4-{2-[(4-Chlorobenzoyl)amino]ethyl}phenoxy)-2-methylpropanoic acid]
FAO (CPT2-deficient myoblasts): able to restore FAO
activity of the deficient enzyme (CPT2) (CPT2): pharmacological enhancement

Solid State Form After GVS (XRPD) [1]: Form 2
Solid State Form After GVS (XRPD) [1, 7]: converts to Form 2
XRPD form after storage ([2]; 25° C./97% RH/7 days): Form 2
XRPD form after storage ([2]; 25° C./97% RH/7 days, listed as crystalline Form 4 of Compound II): converts to Form 2
XRPD form after storage ([2]; 40° C./75% RH/7 days): Form 1
XRPD form after storage ([2]; 40° C./75% RH/7 days, listed as crystalline Form 4 of Compound II): converts to Form 1
XRPD after heating [3]: unchanged
Reversible Water Uptake between 0-90% RH [4]: ~23%
Reversible Water Uptake between 0-90% RH [4, 7]: ~23%
SMILES: Cc1cc(OC/C=C(/c2ccc(F)cc2)c2ccc(C#CCN3CCOCC3)cc2)ccc1OCC(=O)[O-].[Na+] [Form 4, sodium (E)-2-(4-((3-(4-fluorophenyl)-3-(4-(3-morpholinoprop-1-yn-1-yl)phenyl)allyl)oxy)-2-methylphenoxy)acetate]

Solid State Form After GVS (XRPD) [1]: Unchanged (Form 1)
time to complete conversion to Form 2 ([2]; 25° C./97% RH): 4 weeks
XRPD form after storage ([2]; 25° C./97% RH/7 days): Form 2
XRPD form after storage ([2]; 40° C./75% RH/7 days): Unchanged (Form 1)
Reversible Water Uptake between 0-90% RH [4]: ~13.0% †
Reversible Water Uptake between 0-90% RH ([4]; listed as crystalline Form 1 of Compound II): ~13.0%
SMILES: Cc1cc(OC/C=C(/c2ccc(F)cc2)c2ccc(C#CCN3CCOCC3)cc2)ccc1OCC(=O)[O-].[Na+] [Form 1, sodium (E)-2-(4-((3-(4-fluorophenyl)-3-(4-(3-morpholinoprop-1-yn-1-yl)phenyl)allyl)oxy)-2-methylphenoxy)acetate]
form found in competitive slurries of Form 1 and Form 2 [5]: present in most cases with no evidence of Form 2

SMILES: Cc1cnc(-c2ccc(C(F)(F)F)cc2)n1Cc1ccccc1OCCC[C@@H](C)CC(=O)O [MA-0211]
fatty acid oxidation [6]: improvements
